Reference: PubChem BioAssay (NCI)
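Growth conditions: 96-well plates. Treatment: test compound, 48 hours, 5 concentrations. Analysis: linear interpolation between bracketing concentrations; unreached endpoints set to highest concentration. GI50 = concentration required for 50% inhibition of growth. At the TGI there is no net growth.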

Assays:
Assay in all cases: inhibition of tumour cell growth, NCI panel, 48 h
A549 NSCLC = system: A549 NSCLC
MDA-MB-435 = system: MDA-MB-435
HCC-2998 colon = system: HCC-2998 colon
NCI-H23 lung = system: NCI-H23 lung
T-47D breast = system: T-47D breast
HS 578T breast = system: HS 578T breast
OVCAR-4 ovarian = system: OVCAR-4 ovarian
EKVX NSCLC = system: EKVX NSCLC
SK-OV-3 ovarian = system: SK-OV-3 ovarian
SN12C renal = system: SN12C renal

SMILES	TGI (A549 NSCLC)	TGI (MDA-MB-435)	TGI (HCC-2998 colon)	TGI (NCI-H23 lung)	TGI (T-47D breast)	TGI (HS 578T breast)	TGI (OVCAR-4 ovarian)	TGI (EKVX NSCLC)	TGI (SK-OV-3 ovarian)	TGI (SN12C renal)	GI50 (A549 NSCLC)	GI50 (MDA-MB-435)	GI50 (HCC-2998 colon)	GI50 (NCI-H23 lung)	GI50 (T-47D breast)	GI50 (HS 578T breast)	GI50 (OVCAR-4 ovarian)	GI50 (EKVX NSCLC)	GI50 (SK-OV-3 ovarian)	GI50 (SN12C renal)
C[C@@H](c1ccccc1)N1CO[C@@]2(C#Cc3ccc4c(c3)OCO4)CCC[C@@H]12	29.6 µM	28.2 µM	34.7 µM	28.8 µM	34 µM	33.4 µM	28.4 µM	52.6 µM	34.5 µM	33.3 µM	–	–	–	–	–	–	–	–	–	–
NS(=O)(=O)c1ccc(NC(=O)c2ccc3nc4ccccc4c(Nc4ccc(S(N)(=O)=O)cc4)c3c2)cc1	> 100 µM	> 100 µM	> 100 µM	> 100 µM	> 100 µM	> 100 µM	> 100 µM	> 100 µM	> 100 µM	> 100 µM	–	–	–	–	–	–	–	–	–	–
O=C(/C=C/c1cccc(Br)c1)N1CCN(CCOC(c2ccccc2)c2ccccc2)CC1	> 100 µM	> 100 µM	> 100 µM	> 100 µM	82.9 µM	> 100 µM	> 100 µM	> 100 µM	> 100 µM	> 100 µM	–	–	–	–	–	–	–	–	–	–
CCOc1cc2c(cc1O)C(=O)C[C@@H]1[C@@H]2CC[C@]2(C)[C@@H](O)CC[C@@H]12	> 100 µM	0.222 µM	4.56 µM	43.7 µM	> 100 µM	> 12.4 µM	> 100 µM	> 100 µM	> 73.6 µM	> 100 µM	–	–	–	–	–	–	–	–	–	–
COC(=O)c1c2c(cc3c1CC1(C3)Cc3cc4c(c(C(=O)OC)c3C1)CCC4)CCC2	> 100 µM	> 100 µM	> 100 µM	> 100 µM	> 100 µM	> 100 µM	> 100 µM	> 100 µM	> 100 µM	> 100 µM	–	–	–	–	–	–	–	–	–	–
NC1NCCC(=O)N1CCc1c[nH]c2ccccc12 (stereo not given)	69.3 µM	30.7 µM	35.2 µM	38.6 µM	> 100 µM	55.2 µM	80.7 µM	75.5 µM	> 100 µM	67.6 µM	–	–	–	–	–	–	–	–	–	–
Cc1cc(N=Cc2c(CO)cnc(C)c2O)c(N=Cc2c(CO)cnc(C)c2O)cc1C	> 100 µM	> 100 µM	> 100 µM	> 100 µM	> 100 µM	> 100 µM	> 100 µM	> 100 µM	> 100 µM	> 100 µM	–	–	–	–	–	–	–	–	–	–
Cn1c(=S)[nH]c(N)c(Cc2ccccc2)c1=O	> 100 µM	> 100 µM	> 100 µM	> 100 µM	> 100 µM	> 100 µM	> 100 µM	> 100 µM	> 100 µM	> 100 µM	–	–	–	–	–	–	–	–	–	–
CN(/N=C/C=N/N(C)C1=NCCN1)C1=NCCN1	> 100 µM	> 100 µM	> 100 µM	> 100 µM	> 100 µM	> 100 µM	> 100 µM	> 100 µM	> 100 µM	> 100 µM	–	–	–	–	–	–	–	–	–	–
c1cc(CSc2ncnc3nc[nH]c23)ccn1	> 100 µM	> 100 µM	> 100 µM	> 100 µM	> 100 µM	> 100 µM	> 100 µM	> 100 µM	> 100 µM	> 100 µM	–	–	–	–	–	–	–	–	–	–
OC(Cc1cc(CC(O)(C(F)(F)F)C(F)(F)F)nc(CC(O)(C(F)(F)F)C(F)(F)F)c1)(C(F)(F)F)C(F)(F)F	9.69 µM	7.94 µM	> 10 µM	2.65 µM	> 10 µM	4.63 µM	> 10 µM	9.32 µM	> 10 µM	7.33 µM	–	–	–	–	–	–	–	–	–	–
CCCCCCCCCCCCCCCCCCOc1ccccc1COP(=O)(O)OOCC[N+](C)(C)C	23.6 µM	12.3 µM	1.6 µM	4.27 µM	11.2 µM	4.91 µM	9.92 µM	10.3 µM	10.6 µM	3.17 µM	5.5 µM	2.65 µM	0.787 µM	0.804 µM	1.79 µM	1.18 µM	1.33 µM	1.77 µM	2.38 µM	1.1 µM
Cc1c(C#N)c2nc3ccccc3n2c(=O)/c1=C/Nc1ccc(Cl)cc1	> 100 µM	> 100 µM	> 100 µM	59.8 µM	> 100 µM	54.5 µM	> 100 µM	> 100 µM	32.4 µM	> 100 µM	–	–	–	–	–	–	–	–	–	–
CC1(C)[C@H]2Cc3cc4nc5ccccn5c4cc3[C@@H]1C2	40.7 µM	36.7 µM	37 µM	32.4 µM	53.7 µM	37.7 µM	26 µM	32.7 µM	36.4 µM	35.8 µM	–	–	–	–	–	–	–	–	–	–
O=C1N[C@H](C(=O)O)[C@@H](c2ccc(OCc3ccccc3)cc2)O1	> 100 µM	> 100 µM	> 100 µM	> 100 µM	> 100 µM	> 100 µM	> 100 µM	89.1 µM	> 100 µM	> 100 µM	–	–	–	–	–	–	–	–	–	–
Cc1cc(=O)oc2c(C)c3oc(CBr)cc3cc12	33.3 µM	37.7 µM	31.9 µM	40 µM	60.8 µM	> 100 µM	65.1 µM	> 100 µM	75.4 µM	42.2 µM	–	–	–	–	–	–	–	–	–	–
S=C(S)NCCN1CCNCC1	> 100 µM	> 100 µM	68.7 µM	> 100 µM	60.7 µM	> 100 µM	> 100 µM	> 100 µM	> 100 µM	> 100 µM	–	–	–	–	–	–	–	–	–	–
C#CCNC(=O)CC[C@@H](C)[C@H]1CC[C@H]2[C@@H]3CC[C@@H]4CC(=O)CC[C@]4(C)[C@H]3CC[C@]12C	> 100 µM	60.1 µM	54.1 µM	75.7 µM	68.2 µM	77.3 µM	52.6 µM	57.9 µM	> 100 µM	32.1 µM	17.4 µM	18.7 µM	19.7 µM	19.6 µM	8 µM	21.3 µM	14.9 µM	20.1 µM	28.8 µM	13.2 µM

SMILES	TGI (A549 NSCLC)	TGI (MDA-MB-435)	TGI (HCC-2998 colon)	TGI (NCI-H23 lung)	TGI (T-47D breast)	TGI (HS 578T breast)	TGI (OVCAR-4 ovarian)	TGI (EKVX NSCLC)	TGI (SK-OV-3 ovarian)	TGI (SN12C renal)	GI50 (A549 NSCLC)	GI50 (MDA-MB-435)	GI50 (HCC-2998 colon)	GI50 (NCI-H23 lung)	GI50 (T-47D breast)	GI50 (HS 578T breast)	GI50 (OVCAR-4 ovarian)	GI50 (EKVX NSCLC)	GI50 (SK-OV-3 ovarian)	GI50 (SN12C renal)
Cn1c(=O)cc(Nc2ccc(N)cc2)[nH]c1=O	> 100 µM	> 100 µM	> 100 µM	> 100 µM	> 100 µM	> 100 µM	> 100 µM	> 100 µM	> 100 µM	> 100 µM	–	–	–	–	–	–	–	–	–	–
CC/C=C\C=C/C(=O)N/C=C/CCC	> 100 µM	> 100 µM	> 100 µM	> 100 µM	> 100 µM	> 100 µM	> 100 µM	> 100 µM	> 100 µM	> 100 µM	–	–	–	–	–	–	–	–	–	–
CC(C)C(/C=C/c1ccc(Cl)cc1)=N\NC(=O)N/N=C(/C=C/c1ccc(Cl)cc1)C(C)C	41.5 µM	87.6 µM	> 100 µM	55.9 µM	> 100 µM	50.8 µM	36 µM	50.5 µM	93.1 µM	33.7 µM	–	–	–	–	–	–	–	–	–	–
Cc1cccc(N=N/C(=N\NC(=O)c2cc(Cl)ccc2O)c2ccc(N(CCC#N)CCC#N)cc2C)c1	> 100 µM	> 100 µM	58.7 µM	> 100 µM	59.6 µM	> 100 µM	76.3 µM	> 100 µM	> 100 µM	69 µM	–	–	–	–	–	–	–	–	–	–
CC(=O)OCC1OC(O[C@H]2C=C[C@@H](C(=O)OCc3ccccc3)n3c(=O)n(-c4ccccc4)c(=O)n32)C(OC(C)=O)C(OC(C)=O)C1OC(C)=O (stereo not given in full)	35.3 µM	4.45 µM	3.22 µM	9.02 µM	8.33 µM	4.55 µM	6.89 µM	3.9 µM	33.6 µM	3.88 µM	–	–	–	–	–	–	–	–	–	–
O=C(CC(=O)N1N=C(N(c2ccccc2)c2ccccc2)CC1c1ccccc1)Nc1cccc(Cl)c1 (stereo not given)	> 100 µM	> 100 µM	> 100 µM	> 100 µM	> 100 µM	> 100 µM	> 100 µM	> 100 µM	> 100 µM	> 100 µM	–	–	–	–	–	–	–	–	–	–
[O-][N+]1=C2CCC/C(=N/O)C2(O)C2CCCCC21N1CCOCC1 (stereo not given)	> 100 µM	> 100 µM	> 100 µM	> 100 µM	> 100 µM	> 100 µM	> 100 µM	> 100 µM	> 100 µM	> 100 µM	–	–	–	–	–	–	–	–	–	–
CC1(C)N([O-])[N+](=O)C1(C)O (stereo not given)	> 100 µM	> 100 µM	> 100 µM	> 100 µM	> 100 µM	> 100 µM	> 100 µM	> 100 µM	> 100 µM	> 100 µM	–	–	–	–	–	–	–	–	–	–
CC(C)C(=O)/C=C/c1c(Cl)cccc1Cl	21.9 µM	14.7 µM	29 µM	7.24 µM	9.31 µM	9.72 µM	9.4 µM	26 µM	9.27 µM	13.6 µM	–	–	–	–	–	–	–	–	–	–
c1ccc2c(c1)-c1ccccc1C2NC1=NCCO1	> 100 µM	53 µM	33.3 µM	> 100 µM	> 100 µM	> 100 µM	> 100 µM	> 100 µM	> 100 µM	> 100 µM	–	–	–	–	–	–	–	–	–	–
COc1ccc2nc3cc(Cl)ccc3c(NCCCCCC(=O)NC(COc3ccc4ccc5cccnc5c4n3)COc3ccc4ccc5cccnc5c4n3)c2c1	50.1 µM	> 100 µM	28.1 µM	48.6 µM	40.1 µM	73.9 µM	99.8 µM	58 µM	> 100 µM	31.6 µM	–	–	–	–	–	–	–	–	–	–
Cn1c(=O)c2c(=O)cc(N)[nH]c2n(C)c1=O	> 100 µM	> 100 µM	> 100 µM	> 100 µM	> 100 µM	> 100 µM	> 100 µM	> 100 µM	> 100 µM	> 100 µM	–	–	–	–	–	–	–	–	–	–
O=CC1OC(=O)c2cc(O)c(O)c(O)c2-c2c(cc(O)c(O)c2O)C(=O)OC1C1OC(=O)c2cc(O)c(O)c(O)c2-c2c(O)c(O)c3oc(=O)c4c(c(O)c(O)c5oc(=O)c2c3c54)-c2c(cc(O)c(O)c2O)C(=O)OCC1O (stereo not given)	> 100 µM	46.4 µM	> 100 µM	> 100 µM	> 100 µM	> 100 µM	38.2 µM	> 100 µM	> 100 µM	35.5 µM	–	–	–	–	–	–	–	–	–	–
C=C1CC[C@@H]2[C@](C)(COC(=O)CCC(=O)O)CCC[C@@]2(C)[C@@H]1CCC1=CC(=O)OC1	> 100 µM	> 100 µM	> 100 µM	> 100 µM	> 100 µM	> 100 µM	> 100 µM	> 100 µM	> 100 µM	> 100 µM	–	–	–	–	–	–	–	–	–	–
CCN(CC)CCSc1c(C(C)=O)c(=O)n(-c2ccccc2)c(=S)n1-c1ccccc1	30 µM	21.2 µM	24.5 µM	33.2 µM	8.36 µM	> 93.4 µM	29 µM	32.7 µM	> 100 µM	31.6 µM	–	–	–	–	–	–	–	–	–	–
C[C@@H]1CC[C@@]2(C)[C@H](C)/C(=C\COC(=O)/C=C/c3ccc(O)c(O)c3)CC[C@@]12C	35.8 µM	11.6 µM	20 µM	23.1 µM	34.7 µM	32.8 µM	19 µM	30.8 µM	26.4 µM	17.1 µM	–	–	–	–	–	–	–	–	–	–
CCCCCCCCCCCCCCCC(=O)OC1C(O)C(O)C(O)C(O)C12CO2 (stereo not given)	> 100 µM	> 100 µM	> 100 µM	> 100 µM	> 100 µM	> 100 µM	> 100 µM	61.4 µM	> 100 µM	34.5 µM	–	–	–	–	–	–	–	–	–	–
